Test results as given in US8207176B2 (Glaxo Group Limited, priority 2005, dated 2012).

What was measured:
[1] = test system: TGF-β-induced increases in fibronectin and thrombospondin; conditions: cited from earlier work
[2] = molecular target: T1, Recombinant human p38α (MKK6-activated) (Homo sapiens, UniProt Q16539); experiment: Time-resolved fluorescence resonance energy transfer (TR-FRET) kinase assay (standard or low volume); type: biochemical; parameters: key: Compounds are considered active in this assay if they demonstrate a pIC50 of greater than 4.6 up to about a pIC50 of greater than 10.0; conditions: MKK6-activated p38α 100 pM, GST-ATF2 400 nM, 120 minutes at room temperature; either assay format
T1 construct: His; made in house

[3] = test system: synthesis of IL-6, IL-8, GM-CSF, RANTES and COX-2; conditions: a number of different cell types; cited from earlier work
[4] = test system: influx of neutrophils to the lung in LPS-challenged rats; experiment: Rat LPS neutrophilia model; type: in vivo; conditions: intratracheal, LPS aerosol 100 ug/ml 15 min, lavage 4 hours later, in at least one of the range of conditions tested, significant p<0.05, nonsignificant p>0.05
Summary of the method: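 Compound was given intratracheally (200 ul, suspension or dry powder) 15 min–24 hours before a 15 min aerosol of LPS (100 ug/ml). Bronchoalveolar lavage was taken 4 hours after challenge for differential cell counts. Values are % inhibition of neutrophils versus no-compound controls at a given concentration and pretreat time.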

T1 sequence (Q16539 whole entry): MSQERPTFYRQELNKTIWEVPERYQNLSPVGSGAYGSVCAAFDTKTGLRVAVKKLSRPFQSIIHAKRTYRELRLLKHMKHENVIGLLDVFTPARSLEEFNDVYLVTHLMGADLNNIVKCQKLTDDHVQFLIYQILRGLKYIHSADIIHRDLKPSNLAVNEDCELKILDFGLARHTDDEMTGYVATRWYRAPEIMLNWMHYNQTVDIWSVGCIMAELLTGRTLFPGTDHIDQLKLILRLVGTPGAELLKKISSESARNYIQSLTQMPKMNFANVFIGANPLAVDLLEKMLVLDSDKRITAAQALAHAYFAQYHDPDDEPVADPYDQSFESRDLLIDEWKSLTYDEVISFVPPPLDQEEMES

Compound | melting point [°C] | decreasing the synthesis of pro-inflammatory proteins including IL-6, IL-8, GM-CSF, RANTES and COX-2 [3] | inhibition of neutrophilia (neutrophil levels in lung lavage relative to no compound controls) [4] | other results
COc1nccc(-c2c(-c3ccc(F)cc3)ncn2C2CCNCC2)n1 [SB-242235] |  |  |  | effect on TGF-β-induced increases in fibronectin and thrombospondin [1]: inhibited
Cc1c(F)cc(C(=O)NC2CC2)cc1-c1nc(NC(CO)CO)nc2c1ccc(=O)n2-c1c(F)cccc1F [18(e)] | 214.2 to 217.5 |  |  | pIC50, reported as active [2]: active
C[S+]([O-])c1ccc(-c2nc(-c3ccncc3)c(-c3ccc(F)cc3)[nH]2)cc1 (stereo not drawn) [SB-203580] |  | effective |  | 
Cc1ccc(C(=O)NC2CC2)cc1-c1nc(NCCN(C)C)nc2c1ccc(=O)n2-c1c(F)cccc1F [Example 25] | 214.7 to 217.5 |  | statistically nonsignificant inhibition | 
Fc1ccc(-c2nc3n(c2-c2ccncc2)CCS3)cc1 [SK&F 86002] |  | effective |  | 
CCCNCCNc1nc(-c2cc(C(=O)NC3CC3)ccc2C)c2ccc(=O)n(-c3c(F)cccc3F)c2n1 [Example 24, N-cyclopropyl-3-(8-(2,6-difluorophenyl)-7-oxo-2-{[2-(propylamino)ethyl]amino}-7,8-dihydropyrido[2,3-d]pyrimidin-4-yl)-4-methylbenzamide] | 120 to 134 |  | statistically nonsignificant inhibition | 
